Assay results taken from patent publication US8304426B2, “Polymorphic form of Granisetron base, methods for obtaining it and formulation containing it” (Inke, S.A., priority 2007, dated 2012).

Assay: Stability of the polymorphic form: XRPD, IR and DSC characterization repeated one year later
Type: physicochemical
Settings: solid from Example 11 (crystallised from 2-propanol)
Method: A PHILIPS X′ Pert diffractometer provided with a Cu tube and a secondary monochromator made of graphite (wavelength Kα Cu, 1.5419 Å) was used to record the X-ray powder diffractograms. Reception slot: 0.1 mm; Soller: 0.04 rad; antidiffusion slot and divergence slot: 1°.
2.61 g of Granisetron base is dissolved in 7.0 ml of 2-propanol, and is taken to reflux, when all the product is dissolved, the resultant dissolution is allowed to cool to 15° C. and the resultant solid is filtered and washed with 2-propanol. 2.47 g of Granisetron base is recovered (95%). Said Granisetron base is characterized as Form I with the following data of XRPD, IR and DSC: […]

- Stability of polymorphic form (XRPD, IR and DSC characterization repeated, same result obtained): stable
Compound: CN1C2CCCC1CC(NC(=O)c1nn(C)c3ccccc13)C2 (stereo not drawn) [Form I of Granisetron base, endo-1-methyl-N-(9-methyl-9-azabicycle[3.3.1]non-3-yl)-1H-indazole-3-carboxamide]
